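Following 48 hours of exposure in 96-well plates, responses at five concentrations were used to interpolate endpoints linearly. GI50: concentration for 50% inhibition of growth. Definition used: TGI = concentration required for complete inhibition of growth.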
Key:
Assay in all cases: inhibition of tumour cell growth, NCI panel, 48 h
786-0 renal = tested on: 786-0 renal
BT-549 breast = tested on: BT-549 breast
K-562 leukemia = tested on: K-562 leukemia
MALME-3M melanoma = tested on: MALME-3M melanoma
MDA-MB-231 breast = tested on: MDA-MB-231 breast
NCI-H23 lung = tested on: NCI-H23 lung
SR leukemia = tested on: SR leukemia
SW-620 colon = tested on: SW-620 colon
T-47D breast = tested on: T-47D breast
TK-10 renal = tested on: TK-10 renal

Row | Compound | GI50 (786-0 renal) [µM] | TGI (786-0 renal) [µM] | GI50 (BT-549 breast) [µM] | TGI (BT-549 breast) [µM] | GI50 (K-562 leukemia) [µM] | TGI (K-562 leukemia) [µM] | GI50 (MALME-3M melanoma) [µM] | TGI (MALME-3M melanoma) [µM] | GI50 (MDA-MB-231 breast) [µM] | TGI (MDA-MB-231 breast) [µM] | GI50 (NCI-H23 lung) [µM] | TGI (NCI-H23 lung) [µM] | GI50 (SR leukemia) [µM] | TGI (SR leukemia) [µM] | GI50 (SW-620 colon) [µM] | TGI (SW-620 colon) [µM] | GI50 (T-47D breast) [µM] | TGI (T-47D breast) [µM] | GI50 (TK-10 renal) [µM] | TGI (TK-10 renal) [µM]
1 | Cc1nccc2c3ccc(OCc4cn(-c5ccc(Cl)cc5)nn4)cc3n(CCCc3ccccc3)c12 | 0.649 | 1.39 | 7.35 | 19.6 | 2.96 | > 33.3 | 0.745 | 2.79 | 6.83 | > 33.3 | 19.7 | > 33.3 | 0.789 | 2.25 | 2.2 | > 33.3 | 20.6 | > 33.3 | 2 | > 33.3
2 | CC(C)CC(=O)Nc1n[nH]c2c1CN(C(=O)C1CCN(C)CC1)C2(C)C | 2.07 | > 10 | 3.86 | > 10 | 1.34 | > 10 | 6.95 | > 10 | 0.894 | > 10 | 0.352 | 5.4 | 0.135 | 2.59 | 0.895 | > 10 | 1.59 | 9.54 | 2.81 | > 10
3 | CCN(CC)CCCC(C)Nc1nc(C)cc(Nc2ccc3nc(C)cc(N)c3c2)n1 (centres undefined) | > 100 | > 100 | 19.2 | 56.7 | 27.1 | 51.5 | 24.7 | 70.2 | 29 | 85.8 | 32.1 | > 100 | 0.024 | 22.8 | 35.8 | > 100 | 28.6 | 99.4 | > 100 | > 100
4 | N#CC(C#N)N=Nc1ccc(Br)cc1 | 3.79 | 14.1 | 4.18 | 31.5 | 3.02 | > 100 | 1.35 | 10.4 | 1.69 | 7.04 | 2.42 | 26.7 | 3.22 | > 49.8 | 3.01 | 15.8 | 0.839 | 6.75 | 4.04 | 43.2
5 | Cc1[nH]c2ccccc2c1-c1cc(-c2cc(-c3c(C)[nH]c4ccccc34)nc(N)n2)nc(N)n1 |  | > 100 |  | > 100 |  | > 100 |  | > 100 |  | > 100 |  | > 100 |  | > 100 |  | > 100 |  | > 100 |  | > 100
6 | Nc1ccccc1NC(=O)c1ccc(CCCC(=O)Nc2ccc(C3CC3N)cc2)cc1 (centres undefined) | 3.5 | 39.3 | 3.09 | 37.9 | 0.658 | > 100 | 0.559 | 7.2 | 2.77 | 48 | 2.29 | 33.8 | 0.738 | > 100 | 1.08 | 29.5 | 0.562 | > 100 | 0.36 | 26.8
7 | Cc1nc([C@H]2CC[C@H]3[C@@H]4CCC5=CC(=O)CC[C@]5(C)[C@H]4CC[C@]23C)cs1 | > 100 | > 100 | 1.97 | 8.97 | 4.7 | > 100 | 15.2 | > 100 | > 26.7 | > 100 | 2.58 | > 100 | 0.584 |  | 7.66 | > 100 | 1.83 | > 100 | 3.33 | > 100
8 | COc1ccc(-c2nc(C(=O)c3ccccc3)n(CC(=O)c3ccccc3)c2-c2ccc(OC)cc2)cc1 | > 100 | > 100 | > 100 | > 100 | > 100 | > 100 | > 100 | > 100 | > 100 | > 100 | > 100 | > 100 | > 100 | > 100 | > 100 | > 100 | > 100 | > 100 | > 100 | > 100
9 | Fc1ccc(-c2ncn(C3CCNCC3)c2-c2ccnc(Oc3ccc(F)c(F)c3)n2)cc1 | 8.97 | > 16.2 | 12.1 | > 25 | 7.56 | > 19.9 | 5.19 | 9.85 | 5.59 | 12 | > 17.8 | > 25 | 6.23 | 13.4 | 4.36 | 8.98 | 4.7 | 10.2 | 5.09 | 11.1
10 | Clc1ccc(C2=Nn3c(nnc3-c3cc(Cl)cc(Cl)c3Cl)SC2)cc1 | 17.1 | 38 | 17.6 | 47.7 | 3.4 | 35.1 | 10.5 | 29.2 | 23.3 | 97.1 | 22.1 | 78.8 | 3.1 | 7.34 | 17.4 | > 100 | > 100 | > 100 | 15.9 | 35.9
11 | COC(=O)NC1(NC(=O)OC)NC(=O)c2cc(OC)c(OC)c(OC)c2N1 |  | > 100 |  | > 100 |  | > 100 |  | > 100 |  | > 100 |  | > 100 |  | > 100 |  | > 100 |  | > 100 |  | > 100
12 | CS(=O)(=O)CCNCc1ccc(-c2ccc3ncnc(Nc4ccc(OCc5cccc(F)c5)c(C(F)(F)F)c4)c3c2)o1 | 4.68 | 11.1 | 4.9 | 11.9 | 5.07 | 20 | 2.74 | 4.11 | 3.78 | 9.83 | 3.88 | 8.51 | 6.34 | 19.4 | 4.15 | 7.93 | 3.4 | 7.74 | 4.65 | 9.82
13 | CN1C(=O)[C@@H](NC(=O)[C@H](CCC(F)(F)F)[C@H](CCC(F)(F)F)C(N)=O)N=C(c2ccccc2)c2ccccc21 | > 100 | > 100 | 88.8 | > 100 | > 100 | > 100 | > 100 | > 100 | 43.7 | > 100 | > 100 | > 100 | 28.4 | > 100 | > 100 | > 100 | 46.2 | > 100 | > 100 | > 100

From PubChem BioAssay (NCI)
